In patent US11813276B2, “Compositions and methods for the treatment of AUD” (University of Southern California, priority 2020, dated 2023):

Tests used:
mice [1] = assay: Earlier ethanol drinking studies with avermectins given alone; type: in vivo; details: for time from administration to time of significant reduction of ethanol intake: avermectin alone
Text: The altered function or expression of central nervous system (CNS) genes has long been considered a significant factor in contributing to the behavioral phenotype of alcoholism. By profiling gene expression in rodent strains undergoing multiple drinking paradigms, researchers have begun to identify potential candidate genes and pathways that may impart novel mechanistic information that drives the neurobiology of alcoholism.

mice [2] = details: cited from earlier work

| SMILES | time from administration to time of significant reduction of ethanol intake (mice [1]) [h] | effect of chronic administration on the reduction of ethanol intake (tolerance) (mice [1]; chronic administration) | toxicity or addictive liabilities (mice [1]; chronic administration, ethanol drinking studies) | voluntary ethanol intake (mice [2]; IVM alone, doses between 2.5 mg/kg and 10 mg/kg, mice models (Yardlet et al., 2012)) | ethanol intake (mice [2]; male and female mice, avermectin alone) | toxicity or addictive liabilities (mice [1]; mouse, in vivo) |
| --- | --- | --- | --- | --- | --- | --- |
| CC[C@H](C)[C@H]1O[C@]2(CC[C@@H]1C)C[C@@H]1C[C@@H](C/C=C(\C)[C@@H](O[C@H]3C[C@H](OC)[C@@H](O[C@H]4C[C@H](OC)[C@@H](O)[C@H](C)O4)[C@H](C)O3)[C@@H](C)/C=C/C=C3\CO[C@@H]4[C@H](O)C(C)=C[C@@H](C(=O)O1)[C@]34O)O2 [IVM, ivermectin] | 8 | did not significantly alter the reduction of ethanol intake | nor was any measured or observed obvious increase in toxicity or addictive liabilities | significant reduction in the voluntary ethanol intake | significantly reduced ethanol intake | – |
| CO/N=C1\C[C@]2(C[C@@H]3C[C@@H](C/C=C(\C)C[C@@H](C)/C=C/C=C4\CO[C@@H]5[C@H](O)C(C)=C[C@@H](C(=O)O3)[C@]45O)O2)O[C@H](/C(C)=C/C(C)C)[C@H]1C [MOX, moxidectin] | 4 | – | – | – | – | nor was any measured or observed obvious increase in toxicity or addictive liabilities |
